Data as given in paper PMC6287599, “2,6-Bis(2-Benzimidazolyl)Pyridine (BBP) Is a Potent and Selective Inhibitor of Small Conductance Calcium-Activated Potassium (SK) Channels” (Frontiers in Pharmacology, 2018).
Where “and” joins values, the source holds several entries; their conditions need not be identical. Equal values may be shown once.

How the values were obtained:
[1] = tested on: all three SK channel subtypes; experiment: Automated patch clamp, summary over all three SK channel subtypes; assay type: cell-based, human; settings: summary value, read-out: IC50 on all three SK channel subtypes (similar potency)
Procedure: Three different stable HEK293 cell lines expressing hSK1, hSK2 or hSK3 (NeuroSearch A/S, Ballerup, Denmark) and a CHO stable cell line expressing hERG (University of Copenhagen, Copenhagen, Denmark) were used for automated patch clamp. These cells were cultivated and prepared as previously described (Skarsfeldt et al., [2016]).
Automated patch clamp (QPatch 16, Sophion, Denmark) on SK-expressing HEK293 cell lines was conducted as previously described (Simó-Vicens et al., [2017b]). Briefly, SK currents were elicited by voltage-ramps starting at −80 mV and finishing at +80 mV from a holding potential of 0 mV. Extracellular solution contained 0.1 mM CaCl2, 3 mM MgCl2, 154 mM KCl, 10 mM HEPES and 10 mM glucose with pH 7.4. Intracellular solution for SK experiments contained 8.106 mM CaCl2 (final free calcium concentration of 400 nM), 1.167 mM MgCl2, 10 mM EGTA, 154 mM KCl, 10 mM HEPES, 31.25/ 10 mM KOH/EGTA and 15 mM KOH with pH 7.2. Automated patch clamp on hERG-expressing CHO cell line was performed also as previously described (Skarsfeldt et al., [2016]).
Where Y is the normalized response, from 100, corresponding to current recorded during saline perfusion, down to 0, corresponding to currents recorded in the presence of bicuculline methiodide 100 μM. X is the log of the BBP concentration. A standard Hill Slope of −1 was considered for this purpose. […]

hSK1 = hSK1 (Homo sapiens, UniProt Q92952); experiment: Manual whole cell patch clamp, HEK293 transiently transfected with hSK1; assay type: cell-based; settings: BBP 1 μM, compared to positive control bicuculline methiodide 100 μM, n = 6, read-out: Inhibition of hSK1 current
Procedure: (§1) HEK293 cells were transiently co-transfected with the plasmid of interest (hBK, hSK1, hSK2, hSK3 WT, rSK3 H491N, or hIK) and eGFP using standard Lipofectamine™ 2000 (Thermo Fisher Scientific, Waltham, Massachussets, USA) transfection protocols. After transfection, cells were incubated overnight before the experiments.
(§2) Manual patch clamp experiments were performed at room temperature in the whole cell configuration with a HEKA EPC9 amplifier and the Patchmaster software (HEKA Elektronik, Ludwigshafen, Germany). All currents were elicited every 2 s using an incremental 200 ms voltage-ramp protocol starting at −80 mV and finishing at +80 mV from a holding potential of 0 mV. […] Currents were measured using the same solutions as the ones used for automated patch clamp, with symmetrical potassium concentrations and a free intracellular calcium concentration of 400 nM. […]
(§3) To assess the effect of BBP on other calcium-activated potassium channels (hBK, hSK3 WT, rSK3 H491N, and hIK), each individual current was first normalized to its cell size using membrane's capacitance (pA/pF) before statistical analysis. […] Statistical significance between saline and the effect of both BBP and the corresponding reference compound was determined for each channel using one-way ANOVA analysis. […]

hSK3 WT = target: T1, hSK3 WT (Homo sapiens, UniProt Q9UGI6); experiment: Manual whole cell patch clamp, HEK293 transiently transfected with hSK3 WT; assay type: cell-based; settings: BBP 1 μM, compared to positive control bicuculline methiodide 100 μM, n = 5, read-out: Inhibition of hSK3 current
T1 construct: expressed in transfected cells; host or cells: HEK293 (transient, co-transfected with eGFP)
Procedure: as §1, §2, §3

c1cc(-c2nc3ccccc3[nH]2)nc(-c2nc3ccccc3[nH]2)c1 [BBP, 2,6-Bis(2-benzimidazolyl)pyridine]
IC50 [1]: 400 nM and ~400 nM
inhibition at 1 µM (hSK1): 93.7 ± 1.6%
inhibition at 1 µM (hSK3 WT): 92.5 ± 2.3%
